≈ marks a conversion by molar mass, not a printed value.
Columns and labels:
IFN-γ production = tested on: IFN-γ production
Method: (§1) After 24 hours of incubation in 37°C/5%CO2 samples of leukocytes and supernatants were collected.
(§2) Cytokine levels were determined using ELISA kits (BD Biosciences, USA) for human IFNγ, TNF-α and IL-6 and DuoSet for human IL-3 (R&D Systems, USA) according to the producers' instructions. The optical density was measured at 450 nm using a Multiskan RC spectrophotometric reader (Thermo Labsystems, USA), Cytokine concentrations were expressed in pg/ml.

IL-6 production = tested on: IL-6 production
Method: as §1, §2

TNF-α production = tested on: TNF-α production
Method: as §1, §2

in vitro = conditions: human, peripheral blood leukocytes
Method: (§4) Thereby, cell viability was determined on the basis of the mitochondria-dependent reduction of MTT (3-[4,5-dimethyltiazol 2yl]-2,5-diphenyltetrazolium bromide) to formazan. […] Next cells were treated with 20 µl of MTT. After 3 hours of incubation at 37°C, the formazan blue formed in the cells was dissolved in 100 µl of SDS (sodium dodecylsulfate) for 3 hours in 37°C. The optical density was measured at 570 nm.
(§5) After the cytotoxicity tests LC50 (LCso-lethal concentration, 50%-dose required to kill half of the cells after a specified test duration) were estimated for each cell lines and PBLs (leukocytes of peripheral blood). Additionally for PBLs LC10 and LC5 were calculated.

[1] = rats given 4,5 mg/kg of mercury (HgHCI); treatment of 0,0937 mg/ml; without treatment 6 in 8 rats died
HS-683 = assay: cells; conditions: Homo sapiens, Hs 683, 96 h
Method: (§3) Further, a proliferation test was prepared for the same three cell lines: WI-38, A549 and HS 683. 3x10^4 WI-38 cells and 2x10^4 A549 and HS 683. Cells were seeded into each wells in 96-well culture plates in appropriate culture medium with 10% FBS (fetal bovine serum). […] After 96 hours incubation in 37°C/5%CO2 MTT assay was performed for establishing the cell viability.

WI-38 cells = assay: cells; conditions: Homo sapiens, WI-38, 96 h
Method: as §3

A549 cells = assay: cells; conditions: Homo sapiens, A549, 96 h
Method: as §3

H1N1 virus = conditions: H1N1 infected chicken, 0,002 mg/kg each 24 hours, 24 hours after treatment, versus control group
[2] = in vivo
From the text: Thereby the healing process of a human ulcer is examined as a basic condition.

human PBLs = conditions: human leukocytes, 48 hours, MTT
Method: as §4, §5

[3] = read-out: concentration that inhibits 50% of the proliferation

With `CN1CCC[C@H]1c1cccnc1` the “effect on IFN-γ production” value (IFN-γ production) was “strongly decreases the level of interferon in a dose-dependent manner”, the “effect on IL-6 production” value (IL-6 production) was “no effect” and the “effect on TNF-α production” value (TNF-α production) was “increases the level of cytokines in a dose-dependent manner”. For the same molecule, the CC50 at 48 h (in vitro) was 7000 µg/mL (≈ 43.1 mM), the mortality [1] was 0,625 of 8 rats and the IC99 (HS-683; read-out: concentration at which 99% of proliferation are inhibited) was 5500 µg/mL. It also gave an IC50 (HS-683; [3]) of 2900 µg/mL (≈ 17.9 mM), an IC50 (WI-38 cells; [3]) of 1000 µg/mL (≈ 6.16 mM) and an IC99 (WI-38 cells; read-out: concentration that inhibits a proliferation of 99%) of 4500 µg/mL. For the same molecule, the IC50 (A549 cells; [3]) was 2000 µg/mL (≈ 12.3 mM), the IC99 (A549 cells; read-out: concentration that inhibits 99% of the proliferation) was 5500 µg/mL and the egg production (H1N1 virus) was “began to lay off eggs”. The “healing effect on ulcer” value [2] was “increased healing effect”, the LC5 (human PBLs) was 0,5 mg/ml and the LC10 (human PBLs) was 1000 µg/mL (≈ 6.16 mM).

From patent EP3831363A1 (Solis Herrera, Arturo, priority 2019, dated 2021)
